How the values were obtained:
[1] = Dynamic vapour sorption (DVS) study; format: physicochemical; conditions: for Moisture sorption (weight gain) at 90% relative humidity: DVS, 90% RH
Description: UK. The sample weights were taken in the range of 30-50 mg and below experimental parameters were kept constant for all samples.

[2] = Stability of co-crystals stored at 98% relative humidity, checked by XRD; format: physicochemical; conditions: 98% RH
Description: The co-crystals were stored at 98% relative humidity and the stability was evaluated after 24 hours using powder X-ray diffraction. […] This stability of the co-crystal in the presence of high amounts of atmospheric moisture is responsible for maintenance of the effervescent action. The stability of the co-crystals to moisture was investigated by storing the co-crystals at 98% relative humidity and the following results were observed. The co-crystal samples were analysed with XRD to check whether the co-crystal retained its structure or became dissociated or degraded over time on exposure to the atmosphere. Stability of Co-Crystals at 98% RH

Compound | Behaviour in DVS study (in words) ([1]; DVS 0-90% RH, 25 C) | Weight gain due to moisture sorption (total) ([1]; DVS 0-90% RH, 25 C) [%] | Change In Mass (%) ([1]; Target Relative Humidity 0.0%) | Change In Mass (%) ([1]; Target Relative Humidity 10.0%) | Change In Mass (%) ([1]; Target Relative Humidity 20.0%) | Change In Mass (%) ([1]; Target Relative Humidity 30.0%) | Change In Mass (%) ([1]; Target Relative Humidity 40.0%) | Change In Mass (%) ([1]; Target Relative Humidity 50.0%) | Change In Mass (%) ([1]; Target Relative Humidity 60.0%) | Change In Mass (%) ([1]; Target Relative Humidity 70.0%) | Change In Mass (%) ([1]; Target Relative Humidity 80.0%) | Change In Mass (%) ([1]; Target Relative Humidity 90.0%) | Moisture sorption (weight gain) at 90% relative humidity ([1]; 25 C) [%] | XRD results (co-crystal stability) ([2]; Day 14) | XRD results (co-crystal stability) ([2]; Day 18)
O=C(O)CC(O)(CC(=O)O)C(=O)O [citric acid] | undergoes liquefaction | 31 | 0.00 | 0.00 | 0.00 | 0.00 | 0.00 | 0.00 | 0.01 | 0.02 | 4.65 | 31.21 |  |  | 
NC(=O)c1cccnc1.NC(=O)c1cccnc1.O=C(O)CC(O)(CC(=O)O)C(=O)O [Citric acid-nicotinamide, 1:2, citric acid-nicotinamide 1:2 co-crystal] | non-hygroscopic |  |  |  |  |  |  |  |  |  |  |  | 0.23 | Stable | Stable
O=C([O-])O.[Na+] [sodium bicarbonate] |  |  | −0.0001 | 0.0027 | 0.0042 | 0.0056 | 0.0074 | 0.0103 | 0.0143 | 0.0240 | 0.0746 | 0.3236 | 0.32 |  | 
NC(=O)c1cccnc1.NC(=O)c1cccnc1.O=C(O)CC(O)(CC(=O)O)C(=O)O [Citric acid:nicotinamide, 1:2 co-crystal] |  |  | 0.0002 | 0.0044 | 0.0070 | 0.0108 | 0.0145 | 0.0203 | 0.0318 | 0.0561 | 0.0976 | 0.2319 |  |  | 
